Tests used:
HepG2 = test: Cytotoxic activity against mammalian cells in tissue culture (MTT); format: cell-based, human; conditions: HepG2, 120 h, MTT
Method: (§1) For examinations were used selected cell lines: CCRF-CEM—human acute lymphoblastic leukemia; HepG2—human malignant hepatoma; LLC-PK1—epithelial cell of pig kidney; All lines were from ATCC collection.
(§2) The study are conducted using described below methods of culturing and determination of cytotoxic activity.
(§3) CCRF-CEM cells were cultured in medium RPMI 1640+10% fetal bovine serum (FBS), LLC-PK1 cells in medium Medium 199+3% FBS, HepG2 cells in medium MEM+10% FBS. All media contained 100 μg/ml of penicillin G and streptomycin. 24-wells microplates containing appropriate medium were inoculated with the cells in amount of 1.2×10^4 cells/well and allowed to stand overnight. Next, tested compounds as solution in dimethylsulfoxide (DMSO) were added in volume of 10 μl (serial 2× dilutions). To control well 10 μl of DMSO was added. Microplates with cell suspensions were incubated for 120 h at temperature 37° C. at atmosphere of 95%/5% CO2. After incubation, to all wells 200 μl of solution of 3-(4,5-dimethylthiazole-2-yl)-2,5-diphenylotetrazole bromide (MTT) in PBS (4 mg/ml) was added and plates were further incubated for 4 h at 37° C. Next, to dissolve crystals of formazane 1 ml of DMSO was added and absorption of solutions was measured at the wavelength λ=540 nm (A540), using a microplates reader (Victor^3, Perkin-Wallac). […] From these graphs IC50 values were read, that is concentration of tested compound in the presence at which A540 value is half of A540 value measured in the control sample.

CCRF-CEM = test: as above; format: cell-based, human; conditions: CCRF-CEM, 120 h, MTT
Method: as §1, §2, §3

Candida krusei DSM 6128 = test: Antifungal activity in vitro, serial dilution in RPMI 1640; format: cell-based; conditions: Table 2A; RPMI 1640, pH 7.0
In short: (§4)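 Broth serial dilution per M27-A2 in buffered RPMI 1640, pH 7.0. Growth read as optical density at 531 nm; IC50 interpolated as concentration giving 50% of control A531, MIC as lowest concentration giving at most 20% of control A531.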

[1] = test system: Candida pseudotropicalis KKP 324; test: as above; format: cell-based; conditions: Table 2B
In short: as §4

[2] = test system: Candida parapsilosis DSM 5784; test: as above; format: cell-based; conditions: Table 2B
In short: as §4

Candida arborea KKP 319 = test: as above; format: cell-based; conditions: Table 2B
In short: as §4

[3] = test system: Candida stellatoidea CBS 1905; test: as above; format: cell-based; conditions: Table 2B
In short: as §4

[4] = test system: Candida lipolytica KKP 322; test: as above; format: cell-based; conditions: Table 2B
In short: as §4

[5] = test system: Candida tropicalis KKP 334; test: as above; format: cell-based; conditions: Table 2A; RPMI 1640, pH 7.0
In short: as §4

[6] = test system: Candida albicans ATCC 10231; test: as above; format: cell-based
In short: as §4

[7] = test system: Aspergillus niger LOCK E201; test: as above; format: cell-based; conditions: Table 2B
In short: as §4

[8] = test system: Candida quilliermondii DSM 11947; test: as above; format: cell-based; conditions: Table 2B
In short: as §4

[9] = test system: Trichoderma viride LOCK E159; test: as above; format: cell-based; conditions: Table 2B
In short: as §4

[10] = test system: Saccharomyces cerevisiae ATCC 9763; test: as above; format: cell-based
In short: as §4

[11] = test system: Candida glabrata DSM 11226; test: as above; format: cell-based; conditions: Table 2A; RPMI 1640, pH 7.0
In short: as §4

[12] = test system: Candida dubliniensis CBS 7987; test: as above; format: cell-based; conditions: Table 2B
In short: as §4

Human erythrocytes = test: Hemotoxicity (hemolytic activity)
In short: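 Human erythrocytes in saline (2×10^7/ml) were incubated with serially diluted compound at 37 °C for 30 min, then centrifuged. Released hemoglobin was read as A540 against 0.1% Triton X-100 as full hemolysis. EH50 is the interpolated concentration giving 50% of the control A540.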

LLC-PK1 = test: Cytotoxic activity against mammalian cells in tissue culture (MTT); format: cell-based, pig; conditions: LLC-PK1, 120 h, MTT
Method: as §1, §2, §3

Candida albicans B3 = test: Antifungal activity towards resistant (MDR) strains; format: cell-based; conditions: fluconazole sensitive, parent strain for B4
Method: (§5) The determination of antifungal activity was performed by the serial dilutions method in buffered RPMI 1640 medium, in a 96-wells microplates, according to the standard procedure (National Committee for Clinical Laboratory Standards. Reference method for broth dilution antifungal susceptibility testing of yeast, approved standard, 2nd ed. M27-A2 vol. 22 Wayne, Pa., 2002). The optical density of cells suspension was measured using a microplates reader (Victor^3, Perkin-Elmer) at the wavelength λ=660 nm (A660). On the basis of received results the diagrams on interrelation between the A660 value and the concentration of tested compound were made. From these graphs MIC values were read, that are the concentrations of tested compounds, in the presence at which A660 value is at most 20% of A660 value measured in control sample.

Candida albicans Gu4 = test: as above; format: cell-based; conditions: fluconazole sensitive, parent strain for Gu5
Method: as §5

Candida albicans STY31 = test: as above; format: cell-based; conditions: for MIC Candida albicans STY31: 5674 mutant derivative, deletion of CDR1 and CDR2
Method: as §5

Candida albicans Gu5 = test: as above; format: cell-based; conditions: fluconazole-resistant due to the overexpression of CDR1 and CDR2
Method: as §5

Candida albicans 5674 = test: as above; format: cell-based; conditions: for MIC Candida albicans 5674: C. albicans 5674 overexpressing CDR1 and CDR2
Method: as §5

Candida albicans F2 = test: as above; format: cell-based; conditions: fluconazole sensitive, parent strain for F5
Method: as §5

Candida albicans B4 = test: as above; format: cell-based; conditions: for MIC Candida albicans B4: fluconazole-resistant due to the overexpression of CaMDR1
Method: as §5

Candida albicans STY19 = test: as above; format: cell-based; conditions: for MIC Candida albicans STY19: 5674 mutant derivative, deletion of CDR1
Method: as §5

Candida albicans F5 = test: as above; format: cell-based; conditions: for MIC Candida albicans F5: fluconazole-resistant due to the overexpression of CaMDR1 and ERG11
Method: as §5

Candida albicans STY7 = test: as above; format: cell-based; conditions: for MIC Candida albicans STY7: 5674 mutant derivative, deletion of CDR2
Method: as §5

[13] = Table 2A, RPMI 1640, pH 7.0, A531 at most 20% of control

CCN(CC)[C@@H](Cc1ccccc1)C(=O)NC1C(O)C(C)OC(O[C@H]2/C=C/C=C/C=C/C=C/CC/C=C/C=C/[C@H](C)[C@@H](O)[C@@H](C)[C@H](C)OC(=O)C[C@H](O)C[C@H](O)C[C@H](O)CC[C@@H](O)[C@H](O)CC3(O)C[C@H](O)[C@@H](C(=O)O)[C@H](C2)O3)C1O (stereo partly drawn) [Compound N46, N—[L-(N,N-diethyl)phenylalanyl]nystatin A1]
32 µg/mL: MIC Candida parapsilosis DSM 5784 [2] | MIC Candida arborea KKP 319 (Candida arborea KKP 319) | MIC Aspergillus niger LOCK E201 [7] | MIC Candida quilliermondii DSM 11947 [8] | MIC Candida albicans STY31 (Candida albicans STY31) | MIC Candida albicans 5674 (Candida albicans 5674) | MIC Candida albicans STY19 (Candida albicans STY19) | MIC Candida albicans STY7 (Candida albicans STY7)
2.83 µg/mL: Antifungal activity Candida albicans ATCC 10231 IC50 ([6]; Table 2A, RPMI 1640, pH 7.0, A531 50% of control)
0.37%: % of hemolysis at the concentration 60 μg ml^−1 (Human erythrocytes)
>100 µg/mL: Cytotoxicity IC50 HepG2 (HepG2) | Cytotoxicity IC50 CCRF-CEM (CCRF-CEM) | Cytotoxicity IC50 LLC-PK1 (LLC-PK1)
16 µg/mL: MIC Candida pseudotropicalis KKP 324 [1] | MIC Candida lipolytica KKP 322 [4] | MIC Trichoderma viride LOCK E159 [9] | MIC Candida dubliniensis CBS 7987 [12] | MIC Candida albicans Gu5 (Candida albicans Gu5) | MIC Candida albicans F2 (Candida albicans F2) | MIC Candida albicans F5 (Candida albicans F5)
4 µg/mL: Antifungal activity Candida tropicalis KKP 334 MIC [5] | Antifungal activity Candida albicans ATCC 10231 MIC [6, 13] | MIC Candida albicans ATCC 10231 ([6]; Table 2B) | Antifungal activity Saccharomyces cerevisiae ATCC 9763 MIC [10, 13] | MIC Saccharomyces cerevisiae ATCC 9763 ([10]; Table 2B)
8 µg/mL: Antifungal activity Candida krusei DSM 6128 MIC (Candida krusei DSM 6128) | MIC Candida stellatoidea CBS 1905 [3] | Antifungal activity Candida glabrata DSM 11226 MIC [11] | MIC Candida albicans B3 (Candida albicans B3) | MIC Candida albicans Gu4 (Candida albicans Gu4) | MIC Candida albicans B4 (Candida albicans B4)

OC(Cn1cncn1)(Cn1cncn1)c1ccc(F)cc1F [Fluconazole, reference compound]
512 µg/mL: MIC (Candida albicans STY7; Candida albicans, STY7, read-out: MIC Candida albicans STY7)
2 µg/mL: MIC ([6]; Candida albicans, ATCC10231, Table 2B) | MIC ([10]; Saccharomyces cerevisiae, ATCC9763, Table 2B) | MIC ([12]; Candida dubliniensis, CBS7987)
128 µg/mL: MIC (Candida albicans F5; Candida albicans, F5, read-out: MIC Candida albicans F5)
16 µg/mL: MIC ([7]; Aspergillus niger, LOCKE201) | MIC (Candida albicans B4; Candida albicans, B4, read-out: MIC Candida albicans B4)
256 µg/mL: MIC (Candida albicans Gu5; Candida albicans, GU5)
2050 µg/mL: MIC (Candida albicans 5674; Candida albicans, 5674, read-out: MIC Candida albicans 5674)
32 µg/mL: MIC (Candida albicans F2; Candida albicans, F2)
8 µg/mL: MIC ([2]; Lodderomyces parapsilosis, DSM5784) | MIC (Candida arborea KKP 319; Candida, KKP319) | MIC ([4]; Yarrowia lipolytica, KKP322) | MIC ([8]; Candida, DSM11947) | MIC ([9]; Trichoderma viride, LOCKE159)
64 µg/mL: MIC (Candida albicans STY31; Candida albicans, STY31, read-out: MIC Candida albicans STY31) | MIC (Candida albicans STY19; Candida albicans, STY19, read-out: MIC Candida albicans STY19)
0.5 µg/mL: MIC ([1]; Kluyveromyces marxianus, KKP324) | MIC ([3]; Candida albicans, CBS1905) | MIC (Candida albicans B3; Candida albicans, B3) | MIC (Candida albicans Gu4; Candida albicans, GU4)

C[C@@H]1[C@H](O)[C@@H](C)/C=C/C=C/CC/C=C/C=C/C=C/C=C/[C@H](O[C@@H]2O[C@H](C)[C@@H](O)[C@H](NC(=O)[C@H](N)c3ccccc3)[C@@H]2O)C[C@@H]2O[C@](O)(C[C@@H](O)C[C@@H](O)[C@H](O)CC[C@@H](O)C[C@@H](O)CC(=O)O[C@H]1C)C[C@H](O)[C@H]2C(=O)O [Compound N33, N-D-phenylglycylnystatin A1]
8 µg/mL: MIC Candida pseudotropicalis KKP 324 [1] | MIC Candida stellatoidea CBS 1905 [3] | MIC Candida albicans ATCC 10231 ([6]; Table 2B) | MIC Candida albicans Gu4 (Candida albicans Gu4) | MIC Candida albicans Gu5 (Candida albicans Gu5) | MIC Candida albicans B4 (Candida albicans B4)
4 µg/mL: MIC Saccharomyces cerevisiae ATCC 9763 ([10]; Table 2B) | MIC Candida albicans B3 (Candida albicans B3)
8.69%: % of hemolysis at the concentration 300 μg ml^−1 (Human erythrocytes)
>300 µg/mL: EH10 (Human erythrocytes)
32 µg/mL: MIC Candida parapsilosis DSM 5784 [2] | MIC Candida arborea KKP 319 (Candida arborea KKP 319) | MIC Aspergillus niger LOCK E201 [7] | MIC Trichoderma viride LOCK E159 [9] | MIC Candida albicans F5 (Candida albicans F5)
16 µg/mL: MIC Candida lipolytica KKP 322 [4] | MIC Candida quilliermondii DSM 11947 [8] | MIC Candida dubliniensis CBS 7987 [12] | MIC Candida albicans STY31 (Candida albicans STY31) | MIC Candida albicans 5674 (Candida albicans 5674) | MIC Candida albicans F2 (Candida albicans F2) | MIC Candida albicans STY19 (Candida albicans STY19) | MIC Candida albicans STY7 (Candida albicans STY7)

— US9447136B2, “Semisynthetic derivatives of Nystatin A1” (BLIRT S.A., priority 2012, dated 2016)
